Experiments:
Test in all cases: relative viability (nuclei count vs DMSO), 5 days (fraction); higher = more cells survive
ABC-1 = tested on: ABC-1
Method in brief: (§1)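 Lung cancer cell lines were seeded in 1536-well plates and dosed by pin tool the next day, with either a single drug or a fixed anchor-drug dose combined with five library-drug doses (not always all listed) spaced in √10 steps. Five days later, one step fixed the cells and stained their nuclei (final 0.05% Triton X-100, 1% formaldehyde, 1 ug/ml Hoechst), and nuclei were counted on 4× images. Relative viability is the nuclei count in treated wells divided by the count in vehicle wells, and each value is the median of duplicate plates.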

201T = tested on: 201T
Method in brief: as §1

NCI-H1437 = tested on: NCI-H1437
Method in brief: as §1

CAL-12T = tested on: CAL-12T
Method in brief: as §1

SW 900 = tested on: SW 900
Method in brief: as §1

NCI-H727 = tested on: NCI-H727
Method in brief: as §1

NCI-H460 = tested on: NCI-H460
Method in brief: as §1

NCI-H1650 = tested on: NCI-H1650
Method in brief: as §1

NCI-H2170 = tested on: NCI-H2170
Method in brief: as §1

HARA = tested on: HARA
Method in brief: as §1

NCI-H2009 = tested on: NCI-H2009
Method in brief: as §1

NCI-H3122 = tested on: NCI-H3122
Method in brief: as §1

NCI-H1666 = tested on: NCI-H1666
Method in brief: as §1

EKVX = tested on: EKVX
Method in brief: as §1

HCC-366 = tested on: HCC-366
Method in brief: as §1

COR-L 105 = tested on: COR-L 105
Method in brief: as §1

LK-2 = tested on: LK-2
Method in brief: as §1

BEN = tested on: BEN
Method in brief: as §1

LOU-NH91 = tested on: LOU-NH91
Method in brief: as §1

NCI-H441 = tested on: NCI-H441
Method in brief: as §1

PC-14 = tested on: PC-14
Method in brief: as §1

NCI-H661 = tested on: NCI-H661
Method in brief: as §1

O=c1cc(N2CCOCC2)oc2c(-c3cccc4c3sc3ccccc34)cccc12 + O=C(c1cc(Cc2n[nH]c(=O)c3ccccc23)ccc1F)N1CCN(C(=O)C2CC2)CC1 [Olaparib] (partner 8 µM)
relative viability (ABC-1; first compound 0.01 µM): 0.917
relative viability (ABC-1; first compound 0.03162 µM): 0.686
relative viability (ABC-1; first compound 0.1 µM): 0.535
relative viability (ABC-1; first compound 0.3162 µM): 0.677
relative viability (ABC-1; first compound 1 µM): 0.726
relative viability (201T; first compound 0.01 µM): 0.817
relative viability (201T; first compound 0.03162 µM): 0.842
relative viability (201T; first compound 0.1 µM): 0.86
relative viability (201T; first compound 0.3162 µM): 0.815
relative viability (201T; first compound 1 µM): 0.866
relative viability (NCI-H1437; first compound 0.01 µM): 0.606
relative viability (NCI-H1437; first compound 0.03162 µM): 0.656
relative viability (NCI-H1437; first compound 0.1 µM): 0.725
relative viability (NCI-H1437; first compound 0.3162 µM): 0.656
relative viability (NCI-H1437; first compound 1 µM): 0.613
relative viability (CAL-12T; first compound 0.01 µM): 0.682
relative viability (CAL-12T; first compound 0.03162 µM): 0.707
relative viability (CAL-12T; first compound 0.1 µM): 0.75
relative viability (CAL-12T; first compound 0.3162 µM): 0.693
relative viability (CAL-12T; first compound 1 µM): 0.744
relative viability (SW 900; first compound 0.03162 µM): 0.918
relative viability (SW 900; first compound 0.1 µM): 0.794
relative viability (SW 900; first compound 0.3162 µM): 0.719
relative viability (SW 900; first compound 1 µM): 0.572
relative viability (NCI-H727; first compound 0.01 µM): 0.692
relative viability (NCI-H727; first compound 0.03162 µM): 0.618
relative viability (NCI-H727; first compound 0.1 µM): 0.679
relative viability (NCI-H727; first compound 0.3162 µM): 0.711
relative viability (NCI-H727; first compound 1 µM): 0.684
relative viability (NCI-H460; first compound 0.01 µM): 0.452
relative viability (NCI-H460; first compound 0.03162 µM): 0.37
relative viability (NCI-H460; first compound 0.1 µM): 0.452
relative viability (NCI-H460; first compound 0.3162 µM): 0.403
relative viability (NCI-H460; first compound 1 µM): 0.406
relative viability (NCI-H1650; first compound 0.01 µM): 0.667
relative viability (NCI-H1650; first compound 0.03162 µM): 0.752
relative viability (NCI-H1650; first compound 0.1 µM): 0.94
relative viability (NCI-H1650; first compound 0.3162 µM): 0.739
relative viability (NCI-H1650; first compound 1 µM): 0.624
relative viability (NCI-H2170; first compound 0.01 µM): 0.673
relative viability (NCI-H2170; first compound 0.03162 µM): 0.589
relative viability (NCI-H2170; first compound 0.1 µM): 0.526
relative viability (NCI-H2170; first compound 0.3162 µM): 0.53
relative viability (NCI-H2170; first compound 1 µM): 0.598
relative viability (HARA; first compound 0.01 µM): 0.762
relative viability (HARA; first compound 0.03162 µM): 1.01
relative viability (HARA; first compound 0.1 µM): 0.884
relative viability (HARA; first compound 0.3162 µM): 0.972
relative viability (HARA; first compound 1 µM): 0.792
relative viability (NCI-H2009; first compound 0.01 µM): 0.718
relative viability (NCI-H2009; first compound 0.03162 µM): 0.651
relative viability (NCI-H2009; first compound 0.1 µM): 0.592
relative viability (NCI-H2009; first compound 0.3162 µM): 0.652
relative viability (NCI-H2009; first compound 1 µM): 0.673
relative viability (NCI-H3122; first compound 0.01 µM): 0.604
relative viability (NCI-H3122; first compound 0.03162 µM): 0.679
relative viability (NCI-H3122; first compound 0.1 µM): 0.566
relative viability (NCI-H3122; first compound 0.3162 µM): 0.606
relative viability (NCI-H3122; first compound 1 µM): 0.614
relative viability (NCI-H1666; first compound 0.01 µM): 0.753
relative viability (NCI-H1666; first compound 0.03162 µM): 0.738
relative viability (NCI-H1666; first compound 0.1 µM): 0.777
relative viability (NCI-H1666; first compound 0.3162 µM): 0.684
relative viability (NCI-H1666; first compound 1 µM): 0.692
relative viability (EKVX; first compound 0.01 µM): 0.769
relative viability (EKVX; first compound 0.03162 µM): 0.807
relative viability (EKVX; first compound 0.1 µM): 1.03
relative viability (EKVX; first compound 0.3162 µM): 0.851
relative viability (EKVX; first compound 1 µM): 0.891
relative viability (HCC-366; first compound 0.01 µM): 0.368
relative viability (HCC-366; first compound 0.03162 µM): 0.319
relative viability (HCC-366; first compound 0.1 µM): 0.435
relative viability (HCC-366; first compound 0.3162 µM): 0.346
relative viability (HCC-366; first compound 1 µM): 0.386
relative viability (COR-L 105; first compound 0.01 µM): 0.661
relative viability (COR-L 105; first compound 0.03162 µM): 0.756
relative viability (COR-L 105; first compound 0.1 µM): 0.687
relative viability (COR-L 105; first compound 0.3162 µM): 0.694
relative viability (COR-L 105; first compound 1 µM): 0.575
relative viability (LK-2; first compound 0.01 µM): 0.802
relative viability (LK-2; first compound 0.03162 µM): 0.554
relative viability (LK-2; first compound 0.1 µM): 0.847
relative viability (LK-2; first compound 0.3162 µM): 0.722
relative viability (LK-2; first compound 1 µM): 0.737
relative viability (BEN; first compound 0.01 µM): 1.12
relative viability (BEN; first compound 0.03162 µM): 1.21
relative viability (BEN; first compound 0.1 µM): 1.21
relative viability (BEN; first compound 0.3162 µM): 1.08
relative viability (BEN; first compound 1 µM): 1.1
relative viability (LOU-NH91; first compound 0.01 µM): 0.855
relative viability (LOU-NH91; first compound 0.03162 µM): 0.916
relative viability (LOU-NH91; first compound 0.1 µM): 0.96
relative viability (LOU-NH91; first compound 0.3162 µM): 0.921
relative viability (LOU-NH91; first compound 1 µM): 0.884
relative viability (NCI-H441; first compound 0.01 µM): 0.485
relative viability (NCI-H441; first compound 0.03162 µM): 0.48
relative viability (NCI-H441; first compound 0.1 µM): 0.643
relative viability (NCI-H441; first compound 0.3162 µM): 0.631
relative viability (NCI-H441; first compound 1 µM): 0.585
relative viability (PC-14; first compound 0.01 µM): 0.285
relative viability (PC-14; first compound 0.03162 µM): 0.21
relative viability (PC-14; first compound 0.1 µM): 0.325
relative viability (PC-14; first compound 0.3162 µM): 0.282
relative viability (PC-14; first compound 1 µM): 0.269
relative viability (NCI-H661; first compound 0.01 µM): 0.744
relative viability (NCI-H661; first compound 0.03162 µM): 0.725
relative viability (NCI-H661; first compound 0.1 µM): 0.709
relative viability (NCI-H661; first compound 0.3162 µM): 0.732
relative viability (NCI-H661; first compound 1 µM): 0.721
